Data on five compounds can be found in PMC3006453 (Journal of structural biology, 2010).

Experiment [1] addresses T1, AtMTAN1 (Arabidopsis thaliana, UniProt Q9T0I8). The conditions noted are these: ref Siu et al., 2008a, cited from earlier work; for hydrolysis of substrates with extended 5′-substituents by AtMTAN1: previous kinetics studies.
The target of a further experiment is AtMTAN1-Glu202Gln (Arabidopsis thaliana, UniProt Q9T0I8, E202Q). As to the kind of experiment: Isothermal titration calorimetry, ligand binding to AtMTAN1-Glu202Gln mutant. In general terms: Isothermal titration calorimetry measures the heat released or taken up as one component is titrated into another.
The target in another experiment is EcMTAN-Glu174Gln (Escherichia coli, UniProt P0AF12, E174Q). Nature of the experiment: Isothermal titration calorimetry, ligand binding to EcMTAN-Glu174Gln mutant. Conditions: for N: ITC stoichiometry; for ΔH / −TΔS: pH 7.5, 25 °C.
The target in experiment [2] is T1, AtMTAN1. As to the kind of experiment: Xanthine oxidase-coupled spectrophotometric assay of substrate hydrolysis. The experiment is classed as biochemical.
In experiment [3] the target is T1, AtMTAN1. As to the kind of experiment: Isothermal titration calorimetry, ligand binding to wild-type AtMTAN1.
The next experiment has as its system EcMTAN. The conditions noted are these: substrate SAH; no reference and method not given.
In a further experiment the test system is AtMTAN2. Conditions: ref Siu et al., 2008a; cited from earlier work.
Setting [4] is: ITC stoichiometry, single-binding site model.
Where [5] appears, read: ITC, 50 mM sodium-HEPES pH 7.5, 25 °C, single-binding site model.

“Also recorded” adds a separate entry of the source. Where two headings read alike, the source gives them in different places. A value given as a limit tells only on which side of the number the result lay.

In general, Kd refers to a measure of binding affinity in units of concentration. Low values mean tighter binding, high ones weaker binding. The Km is the substrate concentration at which the rate is half of its maximum.

5′-butylthioadenosine: the “hydrolysis of substrates with extended 5′-substituents by AtMTAN1” value on AtMTAN1 [1] is “can hydrolyze”.

In the case of 5′-isobutylthioadenosine, the “hydrolysis of substrates with extended 5′-substituents by AtMTAN1” value on AtMTAN1 [1] is “can hydrolyze”.

5′-methylthioadenosine [MTA]: the N at AtMTAN1-Glu202Gln (setting [4]) is listed as 0.97 ± 0.04; at EcMTAN-Glu174Gln (single-binding site model), 0.94 ± 0.01. Further, the dissociation constant (Kd) at AtMTAN1-Glu202Gln (setting [5]) stood at 94.8 ± 4 µM; at EcMTAN-Glu174Gln (setting [5]) it was 4.8 ± 0.4 µM. The ΔH was 5.6 ± 0.3 kcal/mol on AtMTAN1-Glu202Gln (ITC, pH 7.5, 25 °C) and -9.6 ± 0.1 kcal/mol on EcMTAN-Glu174Gln (ITC). For the same compound, the “−TΔS” value at AtMTAN1-Glu202Gln (ITC, pH 7.5, 25 °C) is -11.1 kcal/mol; on EcMTAN-Glu174Gln (ITC), 2.4 kcal/mol. In addition, on AtMTAN1 [2] (substrate MTA, wild-type AtMTAN1, no reference given), the Michaelis-Menten constant (Km) came out at 1500 ± 200 nM.

As for `Nc1ncnc2[nH]cnc12` [ADE, adenine], the equilibrium dissociation constant (Kd) at AtMTAN1 [3] is 1700 ± 100 nM. Moreover, the N on AtMTAN1 [3] (setting [4]) is on record as 0.99 ± 0.003. Also, at AtMTAN1 [3] (ITC, pH 7.5, 25 °C), the ΔH is -10.3 ± 0.5 kcal/mol and the “−TΔS” value is recorded as 2.4 kcal/mol.

Consider `Nc1ncnc2c1ncn2[C@@H]1O[C@H](CSCC[C@H](N)C(=O)O)[C@@H](O)[C@H]1O` [SAH, S-adenosylhomocysteine], for which the figures for the Kd at AtMTAN1-Glu202Gln, on AtMTAN1-Glu202Gln (setting [5]) and at EcMTAN-Glu174Gln were above 600 µM, “No interaction is detected; also recorded: Not detected” and 9.3 ± 0.4 µM, respectively. On EcMTAN-Glu174Gln (single-binding site model), this compound registered an N of 0.94 ± 0.01. For the same compound, the ΔH on EcMTAN-Glu174Gln (ITC) is -7.9 ± 0.1 kcal/mol. The “−TΔS” value on EcMTAN-Glu174Gln (ITC) was 1.0 kcal/mol. In addition, at AtMTAN1 [2] (kinetics and ITC studies, 10- and 30-min durations), the “catalytic activity (hydrolysis) of AtMTAN1 towards the substrate” value is recorded as “does not hydrolyze; also recorded: did not detect catalytic activity”. In addition, in the experiment on EcMTAN, the Km was 1300 ± 200 nM. Further, in the experiment on AtMTAN2, the “activity towards the substrate” value is 14%. The “activity of AtMTAN1 towards the substrate” value on AtMTAN1 [1] is “completely inactive”.
